One series addresses T1, TIM of T. cruzi (TcTIM) (Trypanosoma cruzi, UniProt P52270).
T1 construct: made in house; host or cells: Escherichia coli
Description: Inhibition of activity of recombinant wild type TcTIM after 2 h incubation. The format is biochemical. On the procedure:
(§1) TcTIM [19] and TIMs from T. brucei, L. mexicana, and Homo sapiens were expressed in Escherichia coli and purified as described in the indicated references. After purification, the enzymes dissolved in 100 mM triethanolamine, 10 mM EDTA and 1 mM dithiothreitol (pH 8) were precipitated with ammonium sulfate (75% saturation) and stored at 4°C. Before use, the enzymes were extensively dialyzed against 100 mM triethanolamine/10 mM EDTA (pH 7.4). Protein was determined from their absorbance at 280 nm. The ε M^−1 cm^−1 was 36440 for TcTIM, and 33460 for TbTIM and LmTIM.
(§2) In all the experiments, a solution of DTDA in dimethylsulfoxide (DMSO) was used. The final DMSO concentration in all experiments was 10% (v/v).
(§3) The indicated TIMs were incubated at pH 7.4 at a concentration of 5 µg per ml of 100 mM triethanolamine, 10 mM EDTA, 10% dimethyl sulfoxide (v/v), and DTDA at the concentrations indicated in the Results section for 2 hours at 36°C. At this time, an aliquot was withdrawn for assay of activity.
(§4) Activity was determined in the direction of glyceraldehyde 3-phosphate to dihydroxyacetone phosphate. The decrease in absorbance at 340 nm was followed in a Hewlett Packard spectrophotometer at 25°C. The reaction mixture (1 ml) contained 100 mM triethanolamine, 10 mM EDTA, 0.2 mM NADH, 1 mM glyceraldehyde 3-phosphate, and 0.9 units α-glycerolphosphate dehydrogenase (pH 7.4). The reaction was started by the addition of TIM, usually 5 ng. The average specific activity of the various preparations of TcTIM used in this work was 2900±200 µmol/min/mg.

Another series relates to rats. The arrangement: method as in PMID 4078223. The following applies: cited from earlier work.
Another series has as its target T2, TbTIM (Trypanosoma brucei brucei, UniProt P04789).
T2 construct: made in house; host or cells: Escherichia coli
Description: Inhibition of activity of TbTIM after 2 h incubation. The class given is biochemical. On the procedure: as §1, §2, §3
Activity was determined in the direction of glyceraldehyde 3-phosphate to dihydroxyacetone phosphate. The decrease in absorbance at 340 nm was followed in a Hewlett Packard spectrophotometer at 25°C. The reaction mixture (1 ml) contained 100 mM triethanolamine, 10 mM EDTA, 0.2 mM NADH, 1 mM glyceraldehyde 3-phosphate, and 0.9 units α-glycerolphosphate dehydrogenase (pH 7.4). […]

In another series the target is T3, LmTIM (Leishmania mexicana, UniProt P48499).
T3 construct: made in house; host or cells: Escherichia coli
Briefly: Inhibition of activity of LmTIM after 2 h incubation. The format is biochemical. The protocol:
as §1, §2, §3, §4

For series [1], the target named is T4, TIM from H. sapiens (HTIM) (Homo sapiens, UniProt P60174).
T4 construct: made in house; host or cells: Escherichia coli
Description: Inhibition of activity of human TIM after 2 h incubation. The class given is biochemical. The protocol:
as §1, §2, §3, §4

Another series deals with T5, TcTIM C40A (Trypanosoma cruzi, UniProt P52270, C40A).
T5 construct: made in house
Briefly: Inhibition of activity of TcTIM C40A mutant. The class given is biochemical. The following applies: half-maximal inhibition of the initial phase (biphasic response), read-out: IC50, concentration of DTDA that induces 50% inhibition. The protocol:
as §2, §3, §4

The target in a further series is T6, TcTIM C15A (Trypanosoma cruzi, UniProt P52270, C15A).
T6 construct: made in house
Description: Inhibition of activity of TcTIM C15A mutant. The class given is biochemical. The following applies: 2 h, 36°C, 10% DMSO, read-out: IC50, concentration of DTDA that induces 50% inhibition. The protocol: as §2, §3, §4

In the next series the target is T7, TcTIM C127A (Trypanosoma cruzi, UniProt P52270, C127A).
T7 construct: made in house
Briefly: Inhibition of activity of TcTIM C127A mutant. The class given is biochemical. The following applies: 2 h, 36°C, 10% DMSO, read-out: IC50, concentration of DTDA that induces 50% inhibition. The protocol:
as §2, §3, §4

The target of the next series is TbTIM V118C (Trypanosoma brucei brucei, UniProt P04789, V117C). Briefly: Inhibition of activity of TbTIM V118C mutant. The class given is biochemical. On the procedure:
as §2, §3, §4

A further series concerns the target T8, TcTIM C118V (Trypanosoma cruzi, UniProt P52270, C118V).
T8 construct: made in house
Description: Inhibition of activity of TcTIM C118V mutant. The settings on record: 2 h, 36°C, 10% DMSO, read-out: IC50, concentration of DTDA that induces 50% inhibition. The class given is biochemical. The protocol:
as §2, §3, §4

Series [2] concerns E. coli cells that had TcTIM instead of their own TIM. Briefly: Growth of E. coli devoid of endogenous TIM transformed with TcTIM. The class given is cell-based, Escherichia coli. On the procedure:
(§5) E. coli JM103 cells were used as control. E. coli devoid of their endogenous TIM termed VR101 [10] were kindly provided by Dr. Gloria Saab-Rincón; these cells have a kanamicin resistant cassette. […] The strains were grown at 37°C in solid Luria-Bertani medium that had been supplemented with 50 µg of kanamycin and 50 µg of ampicilin per ml. One colony was transferred to M9 medium that had 10% DMSO and 50 µg of each of the latter antibiotics per ml. Growth of the various cells was followed throughout time by measuring the absorbance of the culture at 600 nm.

The next series deals with T. cruzi epimastigotes. Briefly: Culture of T. cruzi epimastigotes, cell number up to 72 hours. The format is cell-based, Trypanosoma cruzi. On the procedure: Where indicated in the Results section, the media was supplemented with the indicated concentrations of DTDA. The number of cells was recorded at various times for as long as 72 hours.
The next series concerns hemoglobin. The arrangement: method as in PMID 4078222. The following applies: cited from earlier work.
The next series concerns E. coli JM103 cells. Description: Growth of intact E. coli (own TIM) in minimal media. The class given is cell-based, Escherichia coli. The following applies: 30 µM, M9 medium, 10% DMSO, absorbance at 600 nm. The protocol: as §5
In another series the test system is rodents. The arrangement: method as in PMID 7265299. The settings on record: cited from earlier work.
Where [3] appears, read: concentrations as high as 200 µM.

Read-outs that look alike come from different tables or passages of the source.

T3 sequence (P48499 whole entry): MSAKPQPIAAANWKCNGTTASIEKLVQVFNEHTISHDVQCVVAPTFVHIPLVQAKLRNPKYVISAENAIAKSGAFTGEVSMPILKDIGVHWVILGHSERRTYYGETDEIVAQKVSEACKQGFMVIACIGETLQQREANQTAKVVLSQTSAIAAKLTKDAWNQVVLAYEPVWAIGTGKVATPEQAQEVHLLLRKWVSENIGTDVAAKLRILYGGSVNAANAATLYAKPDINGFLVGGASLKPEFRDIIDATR
T1 sequence (P52270 whole entry): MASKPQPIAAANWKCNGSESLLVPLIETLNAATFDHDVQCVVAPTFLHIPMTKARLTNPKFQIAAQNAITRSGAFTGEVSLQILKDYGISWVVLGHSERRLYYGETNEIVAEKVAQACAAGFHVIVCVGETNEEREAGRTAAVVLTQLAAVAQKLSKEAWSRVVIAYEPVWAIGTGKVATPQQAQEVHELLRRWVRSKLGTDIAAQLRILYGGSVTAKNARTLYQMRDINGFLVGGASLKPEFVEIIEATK
T4 sequence (P60174 whole entry): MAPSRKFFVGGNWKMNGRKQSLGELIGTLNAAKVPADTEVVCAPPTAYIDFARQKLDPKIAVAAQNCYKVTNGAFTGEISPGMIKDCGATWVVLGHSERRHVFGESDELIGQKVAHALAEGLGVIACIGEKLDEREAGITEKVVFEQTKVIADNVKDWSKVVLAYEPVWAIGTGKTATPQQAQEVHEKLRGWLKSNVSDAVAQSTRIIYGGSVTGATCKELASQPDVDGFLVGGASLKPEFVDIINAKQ
T2 sequence (P04789 whole entry): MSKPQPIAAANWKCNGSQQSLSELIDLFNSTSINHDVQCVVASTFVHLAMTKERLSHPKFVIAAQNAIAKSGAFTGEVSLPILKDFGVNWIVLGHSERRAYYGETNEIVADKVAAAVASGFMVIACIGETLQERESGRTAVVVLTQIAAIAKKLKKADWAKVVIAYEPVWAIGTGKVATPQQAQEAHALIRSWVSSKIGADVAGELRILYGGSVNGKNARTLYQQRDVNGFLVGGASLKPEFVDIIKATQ
Sequence of TbTIM V118C (P04789 whole entry V117C): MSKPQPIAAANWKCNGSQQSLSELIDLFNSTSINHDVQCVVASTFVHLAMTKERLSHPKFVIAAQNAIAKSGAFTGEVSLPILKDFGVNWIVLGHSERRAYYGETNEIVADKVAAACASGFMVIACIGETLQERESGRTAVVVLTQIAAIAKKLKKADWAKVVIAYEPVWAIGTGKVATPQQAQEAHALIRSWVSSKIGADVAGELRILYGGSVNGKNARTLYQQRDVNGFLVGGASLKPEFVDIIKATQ
T8 sequence (P52270 whole entry C118V): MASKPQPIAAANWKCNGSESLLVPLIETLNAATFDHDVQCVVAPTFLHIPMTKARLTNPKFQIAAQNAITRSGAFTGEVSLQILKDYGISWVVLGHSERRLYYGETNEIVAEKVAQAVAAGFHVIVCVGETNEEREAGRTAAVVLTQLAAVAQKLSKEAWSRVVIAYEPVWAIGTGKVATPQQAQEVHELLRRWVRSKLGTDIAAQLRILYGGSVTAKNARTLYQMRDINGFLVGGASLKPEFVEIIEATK
T7 sequence (P52270 whole entry C127A): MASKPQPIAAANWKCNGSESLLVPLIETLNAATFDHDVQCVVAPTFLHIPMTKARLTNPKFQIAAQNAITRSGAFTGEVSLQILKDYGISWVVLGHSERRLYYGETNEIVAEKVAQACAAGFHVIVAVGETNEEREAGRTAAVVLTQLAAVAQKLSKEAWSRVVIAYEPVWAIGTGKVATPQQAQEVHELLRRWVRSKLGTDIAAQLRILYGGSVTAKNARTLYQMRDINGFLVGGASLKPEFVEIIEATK
T5 sequence (P52270 whole entry C40A): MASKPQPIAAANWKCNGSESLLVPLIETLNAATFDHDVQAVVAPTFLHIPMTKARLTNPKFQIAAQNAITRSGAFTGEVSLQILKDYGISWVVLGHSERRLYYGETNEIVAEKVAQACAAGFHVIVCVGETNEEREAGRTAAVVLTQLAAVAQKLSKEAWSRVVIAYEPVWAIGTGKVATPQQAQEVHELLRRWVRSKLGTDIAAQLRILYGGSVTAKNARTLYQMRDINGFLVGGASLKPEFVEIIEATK
T6 sequence (P52270 whole entry C15A): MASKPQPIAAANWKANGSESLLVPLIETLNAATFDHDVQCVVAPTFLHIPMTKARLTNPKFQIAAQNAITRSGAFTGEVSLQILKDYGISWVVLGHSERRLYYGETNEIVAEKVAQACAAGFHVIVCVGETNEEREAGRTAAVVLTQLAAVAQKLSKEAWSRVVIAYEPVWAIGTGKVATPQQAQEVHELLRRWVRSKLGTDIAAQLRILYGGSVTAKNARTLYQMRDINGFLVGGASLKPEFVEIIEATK

With `Nc1ccccc1SCSc1ccccc1N` [2,2′-(methylenebisthioaniline)], the IC50 on TIM of T. cruzi (TcTIM) (read-out: concentration required to inhibit the activity of TcTIM by 50%) was found to be 50000 nM.
Turning to `Nc1ccc(SSc2ccc(N)cc2)cc1` [4,4′-diamino disulfide], in the series with rats, the “toxic effect on administration to rats” value was “hematological alterations”.
With `Nc1ccccc1SSc1ccccc1N` [DTDA, 2,2′-dithiodianiline], the “effect on the activity of TbTIM” value at TbTIM (10 µM, 2 h, 36°C) is “did not affect”. Further, the “sensitivity of TbTIM activity” value at TbTIM (setting [3]) was “completely insensitive”. Further, the “effect on the activity of LmTIM” value on LmTIM (10 µM, 2 h, 36°C) was “did not affect”. The IC50 on LmTIM (LmTIM, 2 h, 36°C, 10% DMSO, read-out: IC50, concentration of DTDA that induces 50% inhibition) is over 200000 nM; in series [1] (2 h, 36°C, 10% DMSO, read-out: concentration for fifty percent inhibition of HTIM activity), 98000 nM; on TcTIM C40A, 1530 ± 450 nM; on TcTIM C15A it was 346 ± 32 nM; on TcTIM C127A, 57 ± 8 nM; against TbTIM V118C, over 200000 nM. Further, the IC50 on TcTIM C118V is 208 ± 37 nM; on TIM of T. cruzi (TcTIM) (2 h, 36°C, 10% DMSO, read-out: concentration that induced 50% inhibition of the activity of TcTIM) it was 260 nM; on TIM of T. cruzi (TcTIM) (TcTIM wild, 5 µg/ml enzyme, 2 h, 36°C, 10% DMSO, read-out: IC50, concentration of DTDA that induces 50% inhibition) it was 258 ± 35 nM. Besides, at LmTIM (setting [3]), the “sensitivity of LmTIM activity” value is reported as “completely insensitive”. Besides, the “effect on the activity of HTIM” value in series [1] (10 µM, 2 h, 36°C) is reported as “did not affect”. In addition, the “selectivity for TcTIM in reference to HTIM” value in series [1] (ratio of concentrations for 50% inhibition, HTIM vs TcTIM) is listed as about 400 times. In addition, the “sensitivity of TbTIM V118C mutant activity” value at TbTIM V118C (200 µM) is on record as “insensitive”. In addition, in [2] (30 µM, M9 medium, 10% DMSO, absorbance at 600 nm), the “effect on growth of E. coli cells that relied on the function of TcTIM” value was “effectively prevented”. The “effect on the lag that precedes logarithmic growth of TcTIM transformed E. coli” value in series [2] (concentrations as low as 4 µM) was “important increase in the lag”. Besides, in series [2] (inferred from the effect on TcTIM transformed E. coli), the “permeability of biological membranes to the compound” value is recorded as “permeable”. Besides, the “effect on growth of T. cruzi epimastigotes” value with T. cruzi epimastigotes (4 µM, up to 72 hours) was “inhibition of growth”; in the series on T. cruzi epimastigotes (4–8 µM) it was “significant inhibition of the growth”. The “effect on survival of T. cruzi parasites in cell cultures” value with T. cruzi epimastigotes (10 µM and 15 µM) is “causes death of parasites”. Moreover, the “effect on the number of T. cruzi epimastigotes in culture” value with T. cruzi epimastigotes (concentrations higher than 8 µM, up to 72 hours) is on record as “significant decrease in the number of cells”. Also, the effect on hemoglobin result with hemoglobin was “irreversible oxidation of hemoglobin”. Besides, in the series with E. coli JM103 cells, the “effect on growth of E. coli cells that worked with their own TIM” value is reported as “had no effect”.
With diaminodiphenyldisulfide, in the series with rodents, the “toxic effect on the kidney” value is “atrophy and hyperplasia in the kidney”; the “toxic effect on the liver” value is reported as “necrotic changes in the liver”.

(Values after PMC2041813, “Perturbation of the Dimer Interface of Triosephosphate Isomerase and its Effect on Trypanosoma cruzi” (PLoS Neglected Tropical Diseases, 2007).)
